# Where two headings read alike, the source gives them in different places.
# How the values were obtained:
# [1] = tested on: angiogenesis factor; test: Inhibition of angiogenesis factor (3683 Morris hepatoma lysosomal-mitochondrial pellet) induced serpentine vessels in mice; type: in vivo, mice (SPF/ND4 female); conditions: Mus musculus, ip; for inhibition in vivo at 25 mg/kg: i.p., 24 hours
# Experimental: Lysosomal-mitochondrial pellets containing angiogenesis factor are prepared from 3683 Morris hepatoma. The pellet is diluted with 7-8 ml. of 15% ficoll. With this dilution, 8-10 serpentine vessels will be produced per 0.2 cc. injection as described below for the control group.
# Next, 15 SPF/ND4 female mice weighing 20-22 g. are shaved on the left side and then divided into three groups of five each. One group (drug group) is injected subcutaneously and laterally with 0.20 cc. of the lysosomal-mitochondrial preparation diluted with 15% ficoll. This group of mice is then dosed individually by the intraperitoneal route with 0.5 cc. of a solution or suspension in a standard vehicle containing the compound under test, usually at an initial dose level of 300 mg./kg. If this dose level is toxic, two-fold dilutions are made until all mice survive a single dose. The second group of mice (control group) is injected subcutaneously and laterally with 0.2 cc. of the lysosomal-mitochondrial suspension diluted with 15% ficoll and dosed intraperitoneally with 0.5 cc. of the vehicle alone. The third group (negative control) is injected with ficoll solution only (no treatment with drug or vehicle). The mice are sacrificed after 24 hours. Each mouse is placed on its side on a dissecting board with the shaved side up. Starting at the flank, the skin is cut straight to the back of the animal. A similar cut is made behind the front leg. Then the skin is cut along the back making a flap of about one inch by two inches. The skin is carefully separated from the connective tissue using forceps and a scalpel. The skin flap is then laid back exposing the lysosomal-mitochondrial implant which is attached to the skin. The skin flap is gently flattened out and with the use of a binocular dissecting scope, serpentine vessels are observed around the lysosomal-mitochondrial implant and their number counted. All observations of the number of serpentine vessels are made at the same power of the microscope (1X). The average number of serpentine vessels for each group is calculated. The percent inhibition is then calculated according to the following equation. [formula] where sv=average number of serpentine vessels.
# If the negative control group described above has any serpentine vessels, the test is invalid due to contamination of the ficoll solution.
# Table I covers compounds according to formula I above in which R^2 and R^3 are both H, table II covers compounds in which R^2 and R^3 form a 1-methylethylidene group, and Table III compounds in which R^2 plus R^3 equal a benzylidene group or other group.
# One of the compounds of this invention, 3-O-n-octadecyl-5,6-O-(1-methylethylidene)-L-ascorbic acid was tested at a series of dose levels for its ability to inhibit tumor angiogenesis and the results of these tests are set forth in Table IV.
# [2] = pKa by titration; type: physicochemical; conditions: for pKa: read-out: pKa
# [3] = tested on: paw swelling caused by Type II collagen; test: Collagen arthritis assay (type II collagen-induced paw swelling); type: in vivo, inbred Lewis male rats; conditions: for decrease in paw swelling caused by collagen Type II injection: 15 mg./kg. per os
# Experimental: This test method is a collagen arthritis assay carried out as follows. Type II collagen is isolated from bovine articular cartilage by the method of […] and Nimni [Biochemistry, 10, 3905, (1971)]. The collagen is dissolved in 0.1M acetic acid and stored at -20°. Type II collagen solution is diluted to 2 mg./ml. concentration and emulsified thoroughly with an equal volume of incomplete Freund's adjuvant (ICFA). The emulsion containing approximately 0.5 mg. of collagen is injected intradermally to groups of 6 inbred Lewis male rats (Charles River Breeders; 170-200 g.) at various sites in the dorsal area. The hindpaw volumes of each rat is measured and recorded three times a week throughout the test period to assess the inflammatory reaction. The animals receive compounds under test as suspensions in carboxymethylcellulose vehicle, by oral gavage, 5 days per week (Mon.-Fri.). At the end of the test (day 28 or 30), the blood of these animals is drawn by cardiac puncture and the serum anti-type II collagen antibody levels are estimated by passive hemagglutination technique, using glutaraldehyde treated sheep red cells, to which type II collagen is conjugated [[…] et al., Immunochemistry, 6, 67,1969); Andriopoulos et al., Arth. Rheum., 19, 613, (1976)]. The cellular response or delayed-type hypersensitivity response to type II collagen is measured by the radiometric ear index assay (Kostiala, Immunology, 33, 561, 1977). In certain experiments, the bone damage occurring because of immunization with type II collagen and the effects of drugs are determined from the radiographs of the hindpaws of two or three representative animals from each group. Injections of ICFAs alone were employed to some rats as a negative control.
# [4] = tested on: Vitamin C activity; conditions: orally in aqueous solution; Bezssonoff and Sacrez 1937; cited from earlier work
# [5] = tested on: Madison (M109) lung carcinoma; test: Madison lung metastasis assay; type: in vivo, male BALB/C mice
# Experimental: In addition, the compounds of this invention have found utility as angiogenesis inhibitors in metastatis formation. Such activity has been found in an artificial metastasis model using Madison lung (M 109) carcinoma which metastasizes preferentially to lungs and is not overly sensitive to chemotherapeutic agents. The test is carried out as follows.
# The Madison (M109) lung carcinoma is carried as a transplantable line in syngeneic BALB/C mice. This tumor line was obtained from the tumor bank at Mason Research Institute, Worcester, Mass. For tumor metastasis studies, a subcutaneously-grown tumor is aseptically excised, minced into small pieces with a scissors, and gently trypsinized at room temperature to obtain a single cell suspension. The cells are suspended in RPMI-1640 medium (M. A. Bioproducts, Walkersville, MD). Viable M109 cells are determined by trypan blue exclusion, and the cell concentration is determined with a hemocytometer. The cells are adjusted to 1×10^5 viable cells/ml. of medium. M109 cells are injected i.v. into normal, male BALB/C mice. Inoculum volume per mouse is 0.2 ml. (2×10^4 cells). Drugs are administered i.p. to randomized groups of 10 mice 2 days prior to tumor cell inoculation. Controls receive mock injections of 0.5 ml. buffer. Daily mortality is monitored, and median survival times are determined for each group. Cytoxan was employed as a positive control. In the Table, column 1 gives drug treatment and columns 2 and 3 measures number of lesions±standard error per lung on days 30 and 42.
# The growth rate and number of lung metastases in the above experiment were less than usual. A new transplant line was employed in a second determination with lung lesions developing earlier. Table 6 records the results of this experiment; here ascorbic acid was employed as the control drug.
smiles,measurement,setting,value
"CC1(C)OC[C@@H]([C@H]2OC(=O)C(OCc3ccc(C#N)cc3)=C2OCc2ccc(C#N)cc2)O1 [2,3-bis(O-4-cyanobenzyl)-5,6-O-(1-methylethylidene)-L-ascorbic acid]",inhibition in vivo at 25 mg/kg,"[1]; 24 h, Table 2, read-out: % inhibition (serpentine vessels)",36 to 91%
same,titratable group,[2],No titratable groups
same,decrease in paw swelling caused by collagen Type II injection,[3],substantial decreases in paw swelling
"CCCCCCCCCCCCCCCCCCOC1=C(OCCCCCCCCCCCCCCCCCC)[C@@H]([C@@H](O)CO)OC1=O [2,3-di-(-O-n-octadecyl)-L-ascorbic acid]",inhibition in vivo at 25 mg/kg,"[1]; 24 h, Table 1, read-out: average % inhibition (serpentine vessels)",52%
same,decrease of paw volumes,[3]; 12.5 and 25 mg./kg.,33-67%
"COC1=C(OC)C(C(O)CO)OC1=O (stereo not drawn) [2,3-dimethylascorbic acid]",Vitamin C activity,[4],devoid of Vitamin C activity
O=C1O[C@H]([C@@H](O)CO)C(OCc2cccc(C(F)(F)F)c2)=C1O [3-O-(3-trifluoromethylbenzyl)-L-ascorbic acid],paw volumes vs ICFA controls,[3]; 25 mg./kg.,substantially the same as ICFA controls
"CC1(C)OC[C@@H]([C@H]2OC(=O)C(O)=C2OCCCCC#N)O1 [3-O-(4-cyanobutyl)-5,6-O-(1-methylethylidene)-L-ascorbic acid]",pKa,[2],10.4
same,decrease in paw swelling caused by collagen Type II injection,[3],substantial decreases in paw swelling
CCCCCCCCCCCCCCCCCOC1=C(O)C(=O)O[C@@H]1[C@@H](O)CO [3-O-n-heptadecyl-L-ascorbic acid],decrease in paw swelling caused by collagen Type II injection,[3],substantial decreases in paw swelling
"CCCCCCCCCCCCCCCCCCOC1=C(O)C(=O)O[C@@H]1[C@@H]1COC(C)(C)O1 [3-O-n-octadecyl-5,6-O-(1-methylethylidene)-L-ascorbic acid]",inhibition in vivo at 30 mg/kg,"[1]; Table 4, intraperitoneal dose 30 mg./kg., individual results",58%
same,inhibition in vivo at 120 mg/kg,"[1]; Table 4, intraperitoneal dose 120 mg./kg., individual results",66%
same,inhibition in vivo at 240 mg/kg,"[1]; Table 4, intraperitoneal dose 240 mg./kg., individual results",71%
same,pKa,[2],11.4
same,paw volumes vs negative control levels,"[3]; 50 mg./kg., other runs",indistinguishable from negative control levels
same,inhibition of the swelling of the paw,"[3]; oral 50 mg./kg., one experiment",about 50%
"CC1(C)OC[C@@H]([C@H]2OC(=O)C(O)=C2O)O1 [5,6-O-(1-methylethylidene)-L-ascorbic acid]",inhibition in vivo at 10 mg/kg,"[1]; 24 h, Table 2, dose 10 mg./kg.",48%
same,pKa,[2],6.1
"CCCCCCCCCCC1(C)OC[C@@H]([C@H]2OC(=O)C(O)=C2O)O1 (stereo partly drawn) [5,6-O-(1-n-decylethylidene)-L-ascorbic acid]",decrease in paw swelling caused by collagen Type II injection,[3],substantial decreases in paw swelling
"O=P1(N(CCCl)CCCl)NCCCO1 (stereo not drawn) [Cytoxan, reference compound]",Mean No. of Lesions ± S.E./Lung,"[5]; Table 5, Day 30, 30 mg./kg. i.p. every 4th day starting on day 12, Emulphor control 15.8 ± 4.6",8.4 ± 1.5 Lesions/Lung
O=C1O[C@H]([C@@H](O)CO)C(O)=C1O [ascorbic acid],Mean No. of Lesions ± S.E./Lung,"[5]; Table 6, 16 day, new transplant line, 100 mg./kg., Emulphor control 69.8 ± 10.4",33.8 ± 9.6 Lesions/Lung

# From US4552888A, “Ascorbic acid ethers in angiogene” (Eli Lilly and Company, priority 1983, dated 1985)
